Legend:
[1] = test system: keratinocytes treated with 9 μg/ml BaP; experiment: ROS production in keratinocytes treated with 9 μg/ml BaP (H2DCF-DA probe); assay type: cell-based, human; details: 24 hours, then 9 μg/ml BaP 20 minutes
Procedure: The keratinocytes were then stimulated with 9 μg/ml benzo-α-pyrene (BaP) for 20 minutes. ROS production was evaluated by measurement of fluorescence.
(§1) The significance of the results was verified by Student's t-test.

[2] = test system: keratinocytes treated by UV at 2400 J/m^2; experiment: ROS production in keratinocytes treated by UV at 2400 J/m^2; assay type: cell-based, human; details: 500 μM
Procedure: The antioxidant potential of an extract of the invention with respect to UV-irradiation-induced reactive oxygen species (ROS) was studied.
Normal human keratinocytes were incubated for 24 hours in the presence of a 0.001% and a 0.005% (w/v) extract of the invention, as obtained in Example 1, or of 500 μM vitamin C (reference antioxidant), before incorporation of the H2DCF-DA probe (incubation for 1 hour).
The keratinocytes were then stimulated with UV at 2400 J/m^2 (2000 J/m^2 UVB and 400 J/m^2 UVA) then returned to culture in the presence of a 0.001% and a 0.005% (w/v) extract of the invention, as obtained in Example 1, or of 500 μM vitamin C, for 15 minutes at 37° C.
The production of reactive oxygen species (ROS) was evaluated by measurement of fluorescence and the value obtained was normalized to the quantity of cells obtained using an MTT cell viability assay.
(§2) The results were statistically analysed by one-way ANOVA followed by Tukey's test (GraphPad PRISM version 5.02 software, GraphPad Software, San Diego, Calif., USA).

[3] = test system: H2O2-treated keratinocytes; experiment: ROS production in H2O2-treated keratinocytes (H2DCF-DA probe); assay type: cell-based, human; details: 24 hours, then 100 μM H2O2 20 minutes
Procedure: The antioxidant potential of an extract of the invention with respect to H2O2 induction of reactive oxygen species was studied.
Normal human keratinocytes were incubated for 24 hours in the presence of a 0.002%, a 0.005% and a 0.01% (w/v) extract of the invention, as obtained in Example 1, or of 500 μM vitamin C and 10 μM quercetin (reference antioxidants) before incorporation of the H2DCF-DA probe (incubation for 60 minutes).
The keratinocytes were then stimulated with 100 μM hydrogen peroxide (H2O2) for 20 minutes and the production of reactive oxygen species (ROS) was evaluated by measurement of fluorescence.
as §2

haem oxygenase 1 (HMOX1) = experiment: HMOX1 production by fibroblasts (ELISA); assay type: cell-based, human; details: 24 hours
Procedure: An extract of the invention was analysed on the protein expression of haem oxygenase.
Normal human fibroblasts were treated for 24 hours with a 0.002% and a 0.005% (w/v) extract of the invention, as obtained in Example 1, and with 5 and 10 μM curcumin (reference hormetin).
At the end of the treatment, intracellular haem oxygenase 1 (or HMOX1 or H01) was quantified using an ELISA technique. Staining, proportional to the quantity of the marker of interest, was measured by reading the optical density (OD) at 450 nm, and the value obtained was related to the quantity of cells obtained by a protein assay using the BC Assay (Interchim).
The results were statistically analysed by one-way ANOVA followed by Dunnett's test (GraphPad PRISM version 5.02 software, GraphPad Software, San Diego, Calif., USA).

Nrf2 = Nrf2 activity in ARE-luciferase-transfected HaCaT keratinocytes; assay type: cell-based; details: 6 hours
Procedure: The effect of the extract of the invention was evaluated with respect to activation of translocation of Nrf2, precursor of the cascade responsible for the hormetic response and for certain detoxification pathways of the organism.
ARE-luciferase-transfected HaCaT keratinocytes, containing the antioxidant response element (ARE) plasmid NQO1, which is a specific plasmid for activation of Nrf2 and luciferase (reporter gene), were treated for 6 hours at 37° C. with an extract of the invention, as obtained in Example 1, at concentrations ranging from 0.01% to 0.0005% (w/v) and with a positive reference, 20 μM tert-butylhydroquinone.
At the end of the treatment, the cell monolayers are lysed, luciferase activity is assayed using a “Luciferase Assay Kit” from PROMEGA, and the protein content of each lysate is assayed using the Bradford method (BioRad).

MMP1 = experiment: IR-induced production of MMP1 in normal human fibroblasts (ELISA); assay type: cell-based; details: 10^−7 M, 48 hours after IR 0.57 kJ/cm^2
Procedure: The ability of an extract of the invention to protect dermal cells from the harmful effects of IR rays was studied by evaluating MMP1 production.
Normal human fibroblasts (NHF) were incubated in the presence of a 0.001% extract of the invention, as obtained in Example 1, or of 10^−7 M dexamethasone (reference anti-inflammatory) for 48 hours following 1 hour of infrared irradiation (0.57 kJ/cm^2).
After incubation, the supernatants are collected in order to assay released MMP1 (ELISA Kit, R&D Systems).
as §1

prostaglandin E2 (PGE2) = experiment: PGE2 production in PMA-treated keratinocytes; assay type: cell-based, human; details: 10^−6 M, 24 hours pretreatment, then PMA 0.1 μg/ml 24 hours
Procedure: The anti-inflammatory protection of an extract of the invention with respect to a chemical molecule, PMA, was studied by analysis of the release of prostaglandin 2 (PGE2).
Normal human keratinocytes were pretreated with a 0.002% and a 0.005% extract of the invention, as obtained in Example 1, and with 10^−6 M indomethacin (anti-inflammatory control of the prostaglandin pathway) for 24 hours at 37° C., in order to be able to measure a level of protection of the active agent with respect to inflammation by 0.1 μg/ml PMA (phorbol 12-myristate 13-acetate) used on these same cell monolayers for a further 24 hours. At the end of the treatment, the supernatants are collected and an assay of prostaglandin E2 (PGE2; R&D Systems) is performed. Staining, proportional to the amount of PGE2, was measured by reading the optical density (OD) at 450 nm.
as §1

## O=C1O[C@H]([C@@H](O)CO)C(O)=C1O [vitamin C]
[1]; 500 μM
  ROS % change (Significance): −16%
  ROS (fluorescence units): 14089 ± 1719 fluorescence units
[2]; UV 2400 J/m^2
  ROS (fluorescence intensity/MTT): 26005 ± 3723 fluorescence intensity/MTT
[2]; UV 2400 J/m^2, vs control with UVs
  ROS % change: −40%
[3]; 500 μM
  ROS % change (Significance): −51%
  ROS (fluorescence units): 21719.018 ± 3174.253 fluorescence units

## COc1cc(/C=C/C(=O)CC(=O)/C=C/c2ccc(O)c(OC)c2)ccc1O [Curcumin, curcumin]
[1]; 10 μM
  ROS % change (Significance): −16%
  ROS (fluorescence units): 14065 ± 1231 fluorescence units
Haem oxygenase 1 (HMOX1); 5 μM
  HMOX1 (ng/ml on quantity of cells): 0.060 ± 0.002 ng/ml on quantity of cells
Haem oxygenase 1 (HMOX1); 10 μM
  HMOX1 (ng/ml on quantity of cells): 0.105 ± 0.006 ng/ml on quantity of cells

## O=c1c(O)c(-c2ccc(O)c(O)c2)oc2cc(O)cc(O)c12 [quercetin]
[1]; 10 μM
  ROS % change (Significance): −32%
  ROS (fluorescence units): 17140 ± 1930 fluorescence units
[3]; 10 μM
  ROS % change (Significance): −67%
  ROS (fluorescence units): 14367.847 ± 1790.753 fluorescence units

## CC(C)(C)c1cc(O)ccc1O [Tert-butylhydroquinone, tert-butylhydroquinone]
Nrf2; 20 μM
  Nrf2 activity (mean normalized RLU/μg of proteins): 23216.4 RLU/μg of proteins
Nrf2; 20 μM (positive reference = 100)
  Nrf2 Activation (%): 100%

## Oc1ccc(C=Cc2cc(O)cc(O)c2)cc1 [resveratrol]
[1]; 10 μM
  ROS % change (Significance): −21%
  ROS (fluorescence units): 20357 ± 503 fluorescence units

## C[C@@H]1C[C@H]2[C@@H]3CCC4=CC(=O)C=C[C@]4(C)[C@@]3(F)[C@@H](O)C[C@]2(C)[C@@]1(O)C(=O)CO [Dexamethasone, dexamethasone]
MMP1
  % protection (IR-induced MMP1): 102%
  MMP1: 9.3 ng/mL

## COc1ccc2c(c1)c(CC(=O)O)c(C)n2C(=O)c1ccc(Cl)cc1 [Indomethacin, indomethacin]
Prostaglandin E2 (PGE2)
  PGE2: 52 ± 8 pg/mL
Prostaglandin E2 (PGE2); Homo sapiens, Keratinocyte
  inhibition at 1 µM: 100%

Reference: US11596662B2, “Passion flower seed extract, and cosmetic, pharmaceutical or dermatological compositions containing same” (priority 2015, dated 2023)
